Counter-ions that a name gives are not always drawn.
Test system: HepaRG
Assay: LDH release cytotoxicity, % of total lysis control; higher = more cytotoxic
Settings: 48 h
In short: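 Eight-point half-log series of test chemicals, the highest at 100 µM, were given in duplicate for 48 h to single-lot HepaRG cells on collagen I-coated 96-well plates in serum-free induction medium with 0.5% DMSO. A Tecan Safire read resorufin fluorescence from CytoTox-ONE as a measure of LDH in 50 µL spent medium, with 0.1% Triton X in total lysis wells. Percent cytotoxicity was normalized to on-plate vehicle and total lysis controls and averaged over the duplicates.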

CC(C)(C)c1ccc(CSc2cnn(C(C)(C)C)c(=O)c2Cl)cc1 [Pyridaben]
Settings | LDH release cytotoxicity [%]
0.03162 µM | -0.363
0.1 µM | -1.38
0.3162278 µM | -1.47
1 µM | -1.89
3.16228 µM | 17.6
10 µM | 26.6
31.6228 µM | 26.9
100 µM | 34.6

Cc1ncc(CO)c(CO)c1O [Pyridoxine]
Settings | LDH release cytotoxicity [%]
0.03162 µM | -3.02
0.1 µM | -2.28
0.3162278 µM | -2.33
1 µM | -2.01
3.16228 µM | -2.69
10 µM | -2.47
31.6228 µM | -2.46
100 µM | 1.11

CCc1nc(N)nc(N)c1-c1ccc(Cl)cc1 [Pyrimethamine]
Settings | LDH release cytotoxicity [%]
0.03162 µM | -0.622
0.1 µM | -0.806
0.3162278 µM | 0.238
1 µM | 0.679
3.16228 µM | 1.89
10 µM | 4.04
31.6228 µM | 2.08
100 µM | 14.2

Cc1cc(C)nc(Nc2ccccc2)n1 [Pyrimethanil]
Settings | LDH release cytotoxicity [%]
0.03162 µM | -0.263
0.1 µM | -1.12
0.3162278 µM | -0.512
1 µM | -1.63
3.16228 µM | -0.622
10 µM | -0.288
31.6228 µM | 0.157
100 µM | 3.8

CC(COc1ccc(Oc2ccccc2)cc1)Oc1ccccn1 (stereo not drawn) [Pyriproxyfen]
Settings | LDH release cytotoxicity [%]
0.031623 µM | -1.46
0.1 µM | -2.74
0.316228 µM | -2.85
1 µM | -3
3.16228 µM | -3.01
10 µM | -2.89
31.6228 µM | -1.8
100 µM | 1.18

COc1cc(OC)nc(Sc2cccc(Cl)c2C(=O)O)n1 [Pyrithiobac-sodium]
Settings | LDH release cytotoxicity [%]
0.03162 µM | -1.21
0.1 µM | -0.445
0.3162278 µM | -0.467
1 µM | -0.953
3.16228 µM | -0.133
10 µM | 0.758
31.6228 µM | 0.654
100 µM | 2.53

O=C1C(=O)C(c2ccc(O)c(O)c2)Oc2cc(O)cc(O)c21 (stereo not drawn) [Quercetin]
Settings | LDH release cytotoxicity [%]
0.03162 µM | -0.715
0.1 µM | -0.382
0.3162278 µM | -1.09
1 µM | -1.24
3.16228 µM | -0.569
10 µM | -1.09
31.6228 µM | -1.1
100 µM | 10.6

O=C(O)c1c(Cl)ccc2cc(Cl)cnc12 [Quinclorac]
Settings | LDH release cytotoxicity [%]
0.03162 µM | -0.412
0.1 µM | -0.369
0.3162278 µM | -0.616
1 µM | -0.762
3.16228 µM | -0.281
10 µM | -0.297
31.6228 µM | 0.046
100 µM | 0.495

c1ccc2ncccc2c1 [Quinoline]
Settings | LDH release cytotoxicity [%]
0.03162 µM | -1.44
0.1 µM | 0.113
0.3162278 µM | -0.853
1 µM | -1.155
3.16228 µM | 0.144
10 µM | -1.28
31.6228 µM | -0.47
100 µM | 2.26

Fc1ccc(Oc2ccnc3cc(Cl)cc(Cl)c23)cc1 [Quinoxyfen]
Settings | LDH release cytotoxicity [%]
0.03162 µM | -0.928
0.1 µM | -1.42
0.3162278 µM | -1.39
1 µM | -0.911
3.16228 µM | -1.44
10 µM | -0.367
31.6228 µM | -0.837
100 µM | 3.32

CCOC(=O)C(C)Oc1ccc(Oc2cnc3cc(Cl)ccc3n2)cc1 (stereo not drawn) [Quizalofop-ethyl]
Settings | LDH release cytotoxicity [%]
0.0272 µM | -0.606
0.086 µM | -0.619
0.271956 µM | -0.991
0.86 µM | -1.42
2.71956 µM | -0.919
8.6 µM | -0.541
27.1956 µM | -0.469
86 µM | -0.0561

O=C(c1ccc(OCCN2CCCCC2)cc1)c1c(-c2ccc(O)cc2)sc2cc(O)ccc12 [Raloxifene hydrochloride]
Settings | LDH release cytotoxicity [%]
0.03162 µM | -1.32
0.1 µM | -1.13
0.3162278 µM | -0.881
1 µM | -1.8
3.16228 µM | -2.08
10 µM | -1.62
31.6228 µM | -1.9
100 µM | 73.39

COC(=O)C1C2CC3c4[nH]c5cc(OC)ccc5c4CCN3CC2CC(OC(=O)c2cc(OC)c(OC)c(OC)c2)C1OC (stereo not drawn) [Reserpine]
Settings | LDH release cytotoxicity [%]
0.0267212 µM | -2.17
0.0845 µM | -2.63
0.267213 µM | -1.99
0.845 µM | -3.03
2.67212 µM | -1.69
8.45 µM | -1.52
26.7212 µM | 10.5
84.5 µM | 46.8

CC(C)=CC1C(C(=O)OCc2coc(Cc3ccccc3)c2)C1(C)C (stereo not drawn) [Resmethrin]
Settings | LDH release cytotoxicity [%]
0.03162 µM | -0.985
0.1 µM | -0.737
0.3162278 µM | -0.651
1 µM | -1.31
3.16228 µM | -0.881
10 µM | -0.19
31.6228 µM | -0.451
100 µM | 0.209

Oc1cccc(O)c1 [Resorcinol]
Settings | LDH release cytotoxicity [%]
0.03162 µM | -0.658
0.1 µM | -1.17
0.3162278 µM | -0.864
1 µM | -1.17
3.16228 µM | -2.41
10 µM | -0.6
31.6228 µM | -0.357
100 µM | 2.31

CC(C=CC1=C(C)CCCC1(C)C)=CC=CC(C)=CCO [Retinol]
Settings | LDH release cytotoxicity [%]
0.03305 µM | -0.586
0.1045 µM | -1.81
0.330458 µM | -1.85
1.045 µM | -1.97
3.30458 µM | -2.34
10.45 µM | -1.67
33.0458 µM | -1.8
104.5 µM | -1.69

O=C(CCCCCCCCc1cccnc1)N1CCC(C=C(c2ccccc2)c2ccccc2)CC1 [Ro 23-7637]
Settings | LDH release cytotoxicity [%]
0.03162 µM | 0.3
0.1 µM | -1.044
0.3162278 µM | -0.912
1 µM | -1.28
3.16228 µM | -1.65
10 µM | -1.03
31.6228 µM | 11.7
100 µM | 63.3

C=C(C)C1Cc2c(ccc3c2OC2COc4cc(OC)c(OC)cc4C2C3=O)O1 (stereo not drawn) [Rotenone]
Settings | LDH release cytotoxicity [%]
0.03162 µM | -3.41
0.1 µM | -3.52
0.3162278 µM | -4.58
1 µM | 4.61
3.16228 µM | 19.6
10 µM | 48.4
31.6228 µM | 71.8
100 µM | 72.3

C=CCC1=C(C)C(OC(=O)C2C(C=C(C)C)C2(C)C)CC1=O (stereo not drawn) [S-Bioallethrin]
Settings | LDH release cytotoxicity [%]
0.0147 µM | -2.51
0.0465 µM | -1.46
0.147046 µM | -1.76
0.465 µM | -2.13
1.4704591 µM | -1.73
4.65 µM | -1.51
14.7046 µM | -0.957
46.5 µM | 0.422

C=CCc1ccc2c(c1)OCO2 [Safrole]
Settings | LDH release cytotoxicity [%]
0.03162 µM | -1.32
0.1 µM | -2.757
0.3162278 µM | -3.53
1 µM | -4.07
3.16228 µM | -3.36
10 µM | -2.27
31.6228 µM | -1.93
100 µM | 1.79

CCCC(=NOCC)C1C(=O)CC(CC(C)SCC)CC1=O (stereo not drawn) [Sethoxydim]
Settings | LDH release cytotoxicity [%]
0.0317809 µM | -1.15
0.1005 µM | -1.26
0.317809 µM | -1.36
1.005 µM | -1.93
3.17809 µM | -1.21
10.05 µM | -0.579
31.7809 µM | -0.893
100.5 µM | 0.566

O=[Si]=O [Silica]
Settings | LDH release cytotoxicity [%]
0.03162 µM | -1.16
0.1 µM | -1.07
0.3162278 µM | -1.23
1 µM | -0.971
3.16228 µM | -1.72
10 µM | -1.27
31.6228 µM | -0.861
100 µM | 0.501

CCNc1nc(Cl)nc(NCC)n1 [Simazine]
Settings | LDH release cytotoxicity [%]
0.03162 µM | -0.667
0.1 µM | -1.85
0.3162278 µM | -2.13
1 µM | -2.25
3.16228 µM | -2.26
10 µM | -1.94
31.6228 µM | -0.91
100 µM | -0.579

O=[N+]([O-])c1ccc(O)cc1 [Sodium 4-nitrophenolate]
Settings | LDH release cytotoxicity [%]
0.03162 µM | -0.704
0.1 µM | -1.68
0.3162278 µM | -1.99
1 µM | -1.48
3.16228 µM | -1.71
10 µM | -1.02
31.6228 µM | -0.45
100 µM | 0.91

[O-][n+]1ccccc1S [Sodium (2-pyridylthio)-N-oxide]
Settings | LDH release cytotoxicity [%]
0.03162 µM | -1.41
0.1 µM | -0.73
0.3162278 µM | -1.67
1 µM | -0.357
3.16228 µM | -1.51
10 µM | -1.01
31.6228 µM | -0.585
100 µM | 1.58

[N-]=[N+]=[N-] [Sodium azide]
Settings | LDH release cytotoxicity [%]
0.03162 µM | -0.587
0.1 µM | -0.947
0.3162278 µM | -1.17
1 µM | -1.29
3.16228 µM | -1.23
10 µM | -0.668
31.6228 µM | -0.413
100 µM | 7.38

O=C(O)c1ccccc1 [Sodium benzoate]
Settings | LDH release cytotoxicity [%]
0.031623 µM | 0.689
0.1 µM | -2.13
0.316228 µM | -2.23
1 µM | -3.15
3.16228 µM | -2.88
10 µM | -2.37
31.6228 µM | -1.36
100 µM | -0.292

[O-][Cl+]O [Sodium chlorite]
Settings | LDH release cytotoxicity [%]
0.03162 µM | 0.165
0.1 µM | 0.219
0.3162278 µM | -0.973
1 µM | -1.49
3.16228 µM | -1.49
10 µM | 0.0935
31.6228 µM | -0.775
100 µM | 1.68

CC(=O)C1C(=O)C=C(C)OC1=O (stereo not drawn) [Sodium dehydroacetate]
Settings | LDH release cytotoxicity [%]
0.03162 µM | -0.267
0.1 µM | -1.4
0.3162278 µM | -2.06
1 µM | -1.85
3.16228 µM | -2.36
10 µM | -1.16
31.6228 µM | -0.728
100 µM | 0.541

CN(C)C(=S)S [Sodium dimethyldithiocarbamate]
Settings | LDH release cytotoxicity [%]
0.03162 µM | -0.405
0.1 µM | -0.29
0.3162278 µM | -0.988
1 µM | -0.72
3.16228 µM | -0.138
10 µM | 0.154
31.6228 µM | 0.196
100 µM | 2.63

CCCCCCCCCCCCOS(=O)(=O)O [Sodium dodecyl sulfate]
Settings | LDH release cytotoxicity [%]
0.03162 µM | -0.308
0.1 µM | -0.693
0.3162278 µM | -1.14
1 µM | -0.62
3.16228 µM | -1.89
10 µM | -1.05
31.6228 µM | 0.0441
100 µM | 10.1

Reference: the supplement of paper PMC7840683
